# Experiments:
# [1] = tested on: RNA Seq6 (RNA, single strand) UGAAGGAAGGU; assay: fluorescence polarization; details: 100 mM NaCl; 20 mM HEPES, 25 °C, 0.5 μM compound
# [2] = tested on: DNA Seq6 (DNA, single strand) TGAAGGAAGGT; assay: fluorescence polarization; details: 100 mM NaCl, 1 mM MgCl2; 20 mM HEPES, 25 °C, 0.5 μM compound
# [3] = tested on: DNA Seq6 (DNA, single strand) TGAAGGAAGGT; assay: fluorescence polarization; details: 100 mM NaCl, 1 mM MgCl2; 20 mM HEPES, 25 °C, 0.5 μM compound; remark: listed apart in the source
# [4] = tested on: DNA Seq6 (DNA, single strand) TGAAGGAAGGT; assay: competitive fluorescence polarization; details: 100 mM NaCl, 1 mM MgCl2, 20 mM HEPES, tracer 0.5 μM SMN-C2 displaced from 25 μM DNA Seq6
# [5] = tested on: RNA Seq4 (immobilised) (RNA, single strand) AAGAAGGAAGGUGC; assay: SPR, immobilised RNA; details: running buffer not shown; SMN-C5 up to 40 μM
# [6] = tested on: RNA Seq4 (RNA, single strand) AAGAAGGAAGGUGC; assay: fluorescence polarization; details: 100 mM NaCl; 20 mM HEPES, 25 °C, 0.5 μM compound
# [7] = tested on: RNA Seq6 (RNA, single strand) UGAAGGAAGGU; assay: fluorescence polarization; details: 100 mM NaCl; 20 mM HEPES, 25 °C, 0.5 μM compound; remark: listed apart in the source
Kd [1],Kd [2],SMILES,further results
30.9 ± 6.7 µM,9.9 ± 0.9 µM,CN1CCN(c2cc(F)c3cc(-c4ccc(Cl)cc4)c(=O)oc3c2)CC1,
32.8 ± 5.6 µM,18.7 ± 4.0 µM,CN1CCN(c2cc(F)c3cc(-c4cccc(Cl)c4)c(=O)oc3c2)CC1,
30.6 ± 12.3 µM,8.2 ± 0.7 µM,CN1CCN(c2ccc3cc(-c4ccc(Cl)cc4)c(=O)oc3c2)CC1,
35.9 ± 14.8 µM,13.9 ± 1.1 µM,CN1CCN(c2ccc3cc(-c4cccc(Cl)c4)c(=O)oc3c2)CC1,
> >100 μM,> >100 μM,Cc1c(-c2ccc(Cl)cc2)c(=O)oc2cc(N3CCN(C)CC3)ccc12,
> >100 μM,> >100 μM,Cc1c(-c2cccc(Cl)c2)c(=O)oc2cc(N3CCN(C)CC3)ccc12,

# Continued, compound first:
SMILES,Kd [1],Kd [2],further results
CN1CCN(c2ccc3cc(-c4ccccc4Cl)c(=O)oc3c2)CC1,> >100 μM,,Kd [3]: > 100 µM
COc1cn2cc(-c3cc4ccc(N5CCNCC5)cc4oc3=O)nc2cn1,11.4 ± 0.7 µM,,Kd [3]: 1.4 ± 0.2 µM
Cc1cn2cc(-c3cc(=O)n4cc(N5CCN(C)CC5)ccc4n3)cc(F)c2n1,,,apparent Kd [4]: 5.8 ± 2.5 µM; Kd [5]: 8.0 µM
Cc1cn2cc(-c3cc4ccc(N5CCN(CCNC(=O)OC(C)(C)C)[C@@H](C)C5)cc4oc3=O)nc2c(C)n1,51.2 ± 4.9 µM,4.0 ± 0.3 µM,Kd [6]: 37.5 ± 14.0 µM
Cc1cn2cc(-c3cc4ccc(N5CCN[C@@H](C)C5)cc4oc3=O)nc2c(C)n1,,,Kd [7]: 18.5 ± 5.4 µM; Kd [3]: 2.9 ± 0.3 µM; Kd [6]: 25.4 ± 7.3 µM
O=c1oc2cc(N3CCNCC3)ccc2cc1-c1cn2ccccc2n1,14.5 ± 2.3 µM,2.8 ± 0.5 µM,

# — PMC8373063 (2021)
